This note sets out measurements from a melting point compilation (Tetko et al.; mined from patent text by program, amines drawn as free bases though some values may be those of a salt).

The term melting point denotes the temperature of the solid-liquid transition. Regarding `CCOC(=O)C1=NOC(c2ccc(NC(=O)c3c(I)cccc3C(=O)NC(C)C)c(C)c2)(C(F)(F)F)C1` (stereo not drawn), the melting point lay within 172 to 174 °C.

The molecule `OCCNC(=S)NC1CCc2ccccc2C1` (stereo not drawn) gave a melting point of 89 to 91 °C.

`CCOC(=O)C1(Br)Oc2ccc(OC(C)=O)cc2OC1Br` (stereo not drawn) had a melting point of 58 °C.

`O=C(O)CCCc1ccc(NS(=O)(=O)c2cccc(C(F)(F)F)c2)cn1` gave a melting point of 157 to 159 °C.

In the case of `CCOC(=O)c1csc(C2CCC2)n1`, the melting point lay in the range of 48 to 50 °C.

Regarding `Nc1nc(Cl)c2c(n1)CCCS2`, the melting point was in the range of 196 to 198 °C.

As for `c1ccc(-c2cc3nnc(-c4ccccc4)n3nc2OCc2cn[nH]n2)cc1`, the melting point fell in the range of 208 to 220 °C.

As to `CC(c1ccccn1)C(O)(Cn1cncn1)c1ccc(F)cc1F` (stereo not drawn), the melting point is 146 to 148 °C.

The molecule `Nc1nc2ccc(OS(=O)(=O)c3ccc(F)cc3)cc2[nH]1` displayed a melting point of 192 °C.

For `O=C(CBr)OCC1OC(Sc2ccccc2)C(OCc2ccccc2)C(OCc2ccccc2)C1OCc1ccccc1` (stereo not drawn), the melting point lay within 85 to 87 °C.

`CC(C)CCCC(C)C1CCC2C3CC=C4CC(NC(=O)CCN(C)C(=O)OC5c6ccccc6-c6ccccc65)CCC4(C)C3CCC12C` (stereo not drawn) returned a melting point of 124 to 128 °C.

`COc1ccc2c(N3CCc4c(Br)ccc(C)c43)ncnc2c1`: the melting point lay in the range of 134 to 135 °C.

Take `CCCCOc1nc2cc(C)nn2c2c1cnc1c2cnn1CC`: the melting point was 103 to 104 °C.

On to `CC(OC(=O)c1cc(-n2c(=O)cc(C(F)(F)F)n(C)c2=O)ccc1Cl)C1CC1` (stereo not drawn), for which the melting point was in the range of 118 to 119 °C.

For `Cc1ccnc2[nH]c(C3CC3)nc12`, the melting point fell in the range of 203 to 204 °C.

For the molecule `Clc1ccc(-c2ncn(CC3CC3)c2-c2ccncc2)cc1Cl`, the melting point turned out to be 146 °C.

The molecule `O=C1c2ccccc2C(=O)N1Cc1noc(-c2ncn3c2[C@@H]2CCN2C(=O)c2ccccc2-3)n1` showed a melting point of 290 to 292 °C.

On to `CC1OC(=O)N(C(=O)NCCCN2CCC(c3ccc(F)cc3)CC2)C1c1ccc(F)c(F)c1` (stereo not drawn), for which the melting point was in the range of 108 to 112 °C.

On to `N#CCc1cn2cccc(OCc3ccccc3)c2n1`, for which the melting point was 148 to 150 °C.

Take `C[C@@H]1[C@@H](NC(=O)OCc2ccccc2)CN1S(=O)(=O)O`: the melting point fell in the range of 55 to 64 °C.

Molecule `O=C(NCCc1nc(-c2ccncn2)cc(=O)[nH]1)OCc1ccccc1` returned a melting point of 252 to 254 °C.

The molecule `N#CCCNC(=S)C1=CC(CF)(CF)Oc2ccc([N+](=O)[O-])cc21` yielded a melting point of 114 to 116 °C.

`CCC(=O)NC1=NN(c2ccccc2)C(c2ccc(C)cc2)C1` (stereo not drawn) showed a melting point of 124 to 125 °C.

The molecule `Nc1ccc(-c2ncc(Br)cn2)c([N+](=O)[O-])c1` registered a melting point of 165 to 167 °C.

For `O=C(Oc1cc2ccccc2cc1OC(=O)c1cc(O)c(O)c(O)c1)c1cc(O)c(O)c(O)c1`, the melting point lay in the range of 182 to 183 °C.

For `Cc1ncc(CCCCC(=O)O)s1`, the melting point came out at 75 °C.

The molecule `CCN1C(=O)Cc2cc(C(=O)c3cccs3)ccc21` displayed a melting point of 158 to 160 °C.

The molecule `O=S(=O)(C(=CN=c1ccc(Br)cn1Cc1ccccc1)S(=O)(=O)c1ccccc1)c1ccccc1` returned a melting point of 216 to 217 °C.

As for `CCCCCCCCNC(=O)N(CCCCCSc1nc(-c2ccccc2)c(-c2ccccc2)[nH]1)c1ccccc1`, the melting point fell in the range of 74 to 76 °C.

For the molecule `Nc1sc2c(c1C(=O)c1cccc3ccccc13)CCCC2`, the melting point was in the range of 137 to 140 °C.

In the case of `CC(Oc1cccc(C(=O)NCCN(O)C(N)=O)c1)c1ccccc1` (stereo not drawn), the melting point was in the range of 164 to 165 °C.

Molecule `O=C(O)CC(NC(=O)c1ccccc1)c1ccccc1F` (stereo not drawn) displayed a melting point of 202 to 205 °C.

Regarding `CC(C)(C)c1ccc(NC(=O)c2cccc(C(OC(=O)Nc3ccc4[nH]ncc4c3)[C@@H]3CCCCN3)c2)cc1` (stereo partly drawn), the melting point stood at 214 °C.

`CC(C)COC(=O)C(C#N)=CNCc1ccco1` returned a melting point of 85 to 87 °C.

Regarding `OCc1cncc(-c2ccccc2)c1`, the melting point was in the range of 71 to 72 °C.

Molecule `CC(C)(C)C(NC(=O)Cc1ccc(Cl)cc1)NC(=NC#N)Nc1cccnc1Cl` (stereo not drawn) registered a melting point of 174 to 175 °C.

Take `CCOc1ccc2c(ccn2C)c1O`: the melting point lay within 69 to 70 °C.

The molecule `CCOC(=O)/C=C(/c1ccc(Cl)cc1)c1cccc(OC)c1OC` came in with a melting point of 82 to 84 °C.

`CN1CCN(CCCNc2ncc3cc(-c4c(Cl)cccc4Cl)c(NC(=O)Nc4ccc(Br)cc4)nc3n2)CC1` showed a melting point of 171 to 175 °C.

`COc1c(Br)ccc2s[nH]c(=O)c12` registered a melting point of 197 to 198 °C.

In the case of `COc1ccc(S(=O)(=O)C2(C(=O)NO)CCN(Cc3ccc(Br)cc3)CC2)cc1`, the melting point worked out at 180 °C.

Molecule `N[C@@H](CO)[C@@H](O)[C@H](O)[C@H](O)CO` displayed a melting point of 129 to 130 °C.

`CCC1(CC)NC(C)(COC(=O)C(C)(C)C)COC1=O` (stereo not drawn) came in with a melting point of 51 to 53 °C.

Molecule `CCc1nnc2c(NC3CCC3)nc3ccccc3n12` returned a melting point of 215 to 217 °C.

`O=C(CCN1CCN(c2cccc(Cl)c2)CC1)N1CC2CC3CC(C2)CC1C3` registered a melting point of 110 to 112 °C.

In turn, `O=c1ccsn1C(O)C(Cl)(Cl)Cl` (stereo not drawn) returned a melting point of 117 to 118 °C.

As to `CCc1cc(=O)c2c([nH]1)CCCC2`, the melting point lay in the range of 133 to 137 °C.

As for `CN(CCC1CCN(c2noc3cc(F)ccc23)CC1)C(=O)c1noc2ccccc12`, the melting point fell in the range of 94 to 97 °C.

For the molecule `CC(C)CN1CCC(CCC(=O)c2cc(Cl)c(N)[nH]c2=O)CC1`, the melting point was found to be 175 °C.

Molecule `COc1ccc(-c2cc(C)cn2-c2ccc(S(=O)(=O)NC(C)=O)cc2)cc1` registered a melting point of 215 to 217 °C.

As to `O=C(NCc1cccc2ccccc12)NC1CCN(S(=O)(=O)c2ccccc2C(F)(F)F)C1` (stereo not drawn), the melting point lay within 117 to 119 °C.

As for `CC(C(=O)O)C1CCCc2c1n(Cc1ccc(Cl)cc1)c1ccc(F)cc21` (stereo not drawn), the melting point lay in the range of 203 to 205 °C.

The molecule `COC(=O)CC(O)CP(=O)(C#Cc1c(-c2ccc(F)cc2)c2n(c1C(C)C)CCCC2)OC` (stereo not drawn) gave a melting point of 145 to 146 °C.

For `COc1cc2ccc(C(=O)CBr)cc2cc1OC`, the melting point was in the range of 120 to 122 °C.

Take `COc1cccc(OC)c1CC(=O)N1C[C@@H]2C(=O)CCC(c3ccccc3)(c3ccccc3)[C@@H]2C1` (racemic): the melting point is 224 °C.

Molecule `CCOC(=O)c1c(Cn2cncn2)nc2sc(C)c(C)c2c1-c1ccc(Cl)cc1` had a melting point of 144 to 145 °C.

In the case of `COc1ccc(Cl)cc1[C@]1(F)C(=O)N(C(=O)NC(C)(C)C(=O)OC(C)(C)C)c2cc(C(F)(F)F)ccc21`, the melting point is 57 to 60 °C.

`CC(=O)OC(CBr)Cc1c(O)ccc2ncccc12` (stereo not drawn) yielded a melting point of 146 to 148 °C.

Molecule `COc1ccc(N2CCN(c3ccc(N(C)C4=NC(C)(C)CS4)cc3)CC2)cc1` showed a melting point of 167 °C.

As to `COC(=O)c1cc(Cl)ccc1-n1cnnc1C`, the melting point was 86 to 88.5 °C.

Regarding `Cn1cc(C(=O)NCc2ccc(Cl)cc2)c(=O)c2cc(CN3CC=C(F)CC3)ccc21`, the melting point fell in the range of 221 to 223 °C.

On to `CC(=O)OCc1cc([N+](=O)[O-])ccc1N1C(=O)c2ccc(Cl)cc2C1=O`, for which the melting point fell in the range of 124 to 125 °C.

In the case of `CC1(Oc2ccc(CC(=O)c3ccc4c(c3)CCC4)cc2)CCCC1C(=O)O` (stereo not drawn), the melting point was in the range of 191 to 193 °C.
